Where “and” joins values, the source holds several entries; their conditions need not be identical. Equal values may be shown once.
tested on: GUMC-403; assay: viability at highest tested concentration (max response) relative to DMSO (% of DMSO control); higher = less cytotoxic; conditions: library / dose series: MIPE library, 11-point 1:3 dilution; top concentration 23 µM; 48 h
Procedure, shortened: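 Conditionally reprogrammed GUMC-403 papilloma cells from a patient were plated at 700/well in 5 μL F + Y medium in 1536-well plates and left overnight at 37 °C. A pin tool then added 23 nL of library compounds as an 11-point 1:3 series, for 48 h. CellTiter-Glo luminescence was read on a ViewLux and scaled with vehicle wells set to 100% and empty wells to 0%. Each value gives viability at the highest tested concentration relative to vehicle control.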

| Structure (SMILES) | viability |
| --- | --- |
| CC[C@H](/C=C/[C@@H](C)[C@H]1CC[C@H]2[C@@H]3CC=C4C[C@@H](O)CC[C@]4(C)[C@H]3CC[C@]12C)C(C)C | 104 |

same assay, conditions: library / dose series: MIPE library, 11-point 1:3 dilution; top concentration 46.1 µM; 48 h

| Structure (SMILES) | viability |
| --- | --- |
| O=C(NC[C@H](O)CO)c1ccncc1Nc1ccc(I)cc1F | 72.6 |
| CCC(C)(Oc1ccc(C2(c3ccc(OC(C)(CC)C(=O)O)cc3)CCCCC2)cc1)C(=O)O (centres undefined) | 131 |
| Oc1ccc(C2CCN(c3ccnc4ccccc34)CC2)cc1O | 92.8 |
| CN1CCC(CC1)COC2=CN=C(N=C2)C3=CC(=CC=C3)CN4/N=C(\C=C/C4=O)C5=CC(=CC=C5)C#N | 96.2 |
| COc1ccc2c(c1)CC[C@@H](CN(C)CC(=O)O)[C@H]2c1ccccc1 | 78.3 |
| N#C[C@@H]1C[C@@H]2C[C@@H]2N1C(=O)[C@@H](N)C12CC3CC(CC(O)(C3)C1)C2 | 111 |
| CN1C(=O)/C(=C(NC2=CC=C(I)C=C2F)\C3=C1\N=C/N(C[C@@H](O)CO)C3=O)F | 28.9 |
| C[C@]12C[C@H](O)[C@H]3[C@@H](CC\C4=C\C(=O)\C=C/[C@]34C)[C@@H]1CC[C@]2(O)C(=O)CO | 118 |
| CC/1=C(/C(CC(=O)N1)C2=CC=C(C=C2)C(F)(F)F)C(=O)NC3=C(F)C=C4[NH]N=CC4=C3 (centres undefined) | 108 |
| Cc1noc(N[S+](=O)([O-])c2ccc(N)cc2)c1C | 130 |
| CNC(=O)c1cc(COc2nnc(Nc3ccc(Cl)cc3)c3ccoc23)ccn1 | 113 |
| O=C(/C=C/c1c(C(=O)[O-])[nH]c2cc(Cl)cc(Cl)c12)Nc1ccccc1 | 111 |
| CCC(=O)OCC(=O)[C@@]1(OC(=O)CC)[C@@H](C)C[C@H]2[C@@H]3CCC4=CC(=O)C=C[C@]4(C)[C@@]3(F)[C@@H](O)C[C@@]21C | 120 |
| COc1cc2nc(N3CCN(C(=O)c4ccco4)CC3)nc(N)c2cc1OC | 23.4 |
| CC(=O)NC(CS)C(=O)O (centres undefined) | 91.1 |
| Nc1ncnc2c1ncn2[C@@H]1O[C@H](CO)[C@@H](O)[C@H]1O | 132 |
| COc1cc([C@H]2Oc3cc([C@H]4Oc5cc(O)cc(O)c5C(=O)[C@@H]4O)ccc3O[C@@H]2CO)ccc1O | 83.9 |
| CCCCCN(CCC12CC3CC(CC(C3)C1)C2)C(=O)NCCCc1ccncc1 | 89.8 |
| Cn1cc(-c2cnn3c(N)c(Br)c([C@H]4CCCNC4)nc23)cn1 | 100 |
| CCN1C[C@]2(OC(=O)c3ccccc3NC(C)=O)CC[C@H](OC)[C@@]34[C@@H]2C[C@@H]([C@@H]13)[C@@]1(O)C[C@H](OC)[C@H]2C[C@@H]4[C@]1(O)[C@H]2OC | 139 |
| CC(C)OC(=O)C(C)(C)Oc1ccc(C(=O)c2ccc(Cl)cc2)cc1 | 117 |

| Structure (SMILES) | viability |
| --- | --- |
| NCCCC(O)(P(=O)(O)O)P(=O)(O)O.O.O.O.[Na+] | 111 |
| COc1cccc2c1C(=O)c1c(O)c3c(c(O)c1C2=O)C[C@@](O)(C(=O)CO)C[C@@H]3O[C@H]1C[C@H](N)[C@H](O[C@H]2CCCCO2)[C@H](C)O1 | 57.9 |
| NCCCCCC(=O)O | 130 |
| CC(=O)C\1=C(/C)C2=CN=C(NC3=CC=C(C=N3)N4CCNCC4)N=C2N(C5CCCC5)C1=O | 93 |
| O=C1N\C=N/C2=C1C=N[NH]2 | 106 |
| Cc1cn[nH]c1 | 126 |
| C1CCC(C(CC2CCCCN2)C2CCCCC2)CC1 (centres undefined) | 85.1 |
| Cn1cnc([N+](=O)[O-])c1Sc1ncnc2nc[nH]c12 | 105 |
| O=C(/C=C/c1cccnc1)NCCCCC1CCN(C(=O)c2ccccc2)CC1 | 128 |
| CCC(C)SSc1ncc[nH]1 (centres undefined) | 101 |
| OC1CCC(Nc2ncc3nc(Nc4c(F)cc(F)cc4F)n([C@@H]4CCOC4)c3n2)CC1 (some centres undefined) | 95.5 |
| CCCCC(C)(C)[C@H](O)/C=C/[C@H]1[C@H](O)CC(=O)[C@@H]1C/C=C\CCCC(=O)O | 104 |
| C[C@H]1[C@@H](OC(=O)CCC(=O)O)O[C@@H]2O[C@@]3(C)CC[C@H]4[C@H](C)CC[C@@H]1[C@@]24OO3 | 97.7 |
| CCOC(=O)[C@@H](N)Cc1ccc(-c2cc(O[C@H](c3ccc(Cl)cc3-n3ccc(C)n3)C(F)(F)F)nc(N)n2)cc1.O=C(O)CNC(=O)c1ccccc1 | 117 |
| C[C@@H](O)[C@@H]1[C@H]2[C@@H](C)\C(=C(/N2C1=O)C(=O)OCOC(=O)C(C)(C)C)SC3CN(C3)/C4=N/CCS4 | 78.1 |
| CC(=O)O/N=C1/C(=C2\C(=O)Nc3cc(Br)ccc32)Nc2ccccc21 | 122 |
| O=C([O-])C[C@H](O)C[C@H](O)/C=C/c1c(C2CC2)nc2ccccc2c1-c1ccc(F)cc1 | 92.1 |
| CCC(CC)[C@H](NC(C)=O)[C@@H]1[C@H](O)[C@@H](C(=O)O)C[C@H]1NC(=N)N | 106 |
| O=C(Nc1cccc(Br)c1)c1cccc([S+](=O)([O-])N2CCCCCC2)c1 | 111 |
| NC(CO)C(=O)NNCc1ccc(O)c(O)c1O (centres undefined) | 96.3 |
| CCc1cc(/C(C)=N/OCc2ccc(C3CCCCC3)c(C(F)(F)F)c2)ccc1CN1CC(C(=O)O)C1 | 116 |

| Structure (SMILES) | viability |
| --- | --- |
| O=c1oc2c(O)c(O)cc3c(=O)oc4c(O)c(O)cc1c4c23 | 143 |
| Cc1ccc2c(=O)c3cccc(CC(=O)O)c3oc2c1C | 6.71 |
| O=C(CCc1ccc(O)cc1)c1c(O)cc(O)cc1O | 107 |
| CCN1\C=C(\C(O)=O)C(=O)C2=CC=C(C)N=C12 | 92 |
| CN1C(=O)CCS(=O)(=O)C1c1ccc(Cl)cc1 (centres undefined) | 104 |
| CCC[S+]([O-])c1ccc2[nH]c(NC(=O)OC)nc2c1 (centres undefined) | 92.2 |
| Cc1cn([C@@H]2O[C@H](CO)[C@@H](O)[C@@H]2F)c(=O)[nH]c1=O | 128 |
| COc1ccc([C@@H]2CC(=O)c3c(O)cc(O[C@@H]4O[C@H](CO[C@@H]5O[C@@H](C)[C@H](O)[C@@H](O)[C@H]5O)[C@@H](O)[C@H](O)[C@H]4O)cc3O2)cc1O | 94.4 and 102 |
| O=C(O)C(=O)c1cn(Cc2ccccc2)c2ccc(-c3ccc(OC(F)(F)F)cc3)cc12 | 111 |
| Cc1[nH]c(/C=C2\C(=O)Nc3ccccc32)c(C)c1CCC(=O)O | 98.9 |
| C[C@]12CC[C@@H]3c4ccc(O)cc4C[C@@H](CCCCCCCCC[S+]([O-])CCCC(F)(F)C(F)(F)F)[C@H]3[C@@H]1CC[C@@H]2O (some centres undefined) | 114 |
| COCCNCCCn1c(C(=O)CF)c(-c2ccc(C)cc2)c2c(N)ncnc21 | 90.7 |
| C[S+](=O)([O-])N(Cc1ccco1)CC(O)Cn1c2ccccc2c2ccccc21 (centres undefined) | 90.4 |
| COC(=O)[C@H](Cc1ccccc1)NC(=O)[C@@H](N)CC(=O)O | 102 |
| CCCCCCCCOc1ccccc1C(=O)Nc1ccc(C(=O)OCC[N+](C)(CC)CC)cc1 | 104 |
| CCCCCCCN(CC)CCCC(O)c1ccc(NS(C)(=O)=O)cc1.CCCCCCCN(CC)CCCC(O)c1ccc(NS(C)(=O)=O)cc1.O=C(O)/C=C/C(=O)O (centres undefined) | 106 |
| CSC1=CC(=CC=C1)NC2=NC3=C(C=N2)/C=C(C(=O)N3C)/C4=C(Cl)C=CC=C4Cl | 107 |
| CCC\C1=C\C(=O)NC(=S)N1 | 110 |
| CN(C)CCCC1(c2ccc(F)cc2)OCc2cc(C#N)ccc21 (centres undefined) | 98.5 |
| CNC1CCCN(c2c(F)cc3c(=O)c(C(=O)O)cn(C4CC4)c3c2OC)C1 (centres undefined) | 121 |
| CN(C)CCc1ccc(O)cc1 | 118 |

| Structure (SMILES) | viability |
| --- | --- |
| CCOC(=O)N1CCN(/[N+]([O-])=N/Oc2ccc([N+](=O)[O-])cc2C#N)CC1 | 92.1 |
| CC1(C)C(=O)N(CCN2CCC(C(=O)c3ccc(F)cc3)CC2)c2ccccc21 | 71.3 |
| CC(C)[C@@H](N(CCCN)C(=O)C1=CC=C(C)C=C1)C/2=N/C3=CC(=CC=C3C(=O)N2CC4=CC=CC=C4)Cl | 121 |
| O=C([O-])Cc1ccccc1Nc1c(Cl)cccc1Cl | 104 |
| CC(C)(C)c1nc(-c2cccc(N[S+](=O)([O-])c3c(F)cccc3F)c2F)c(-c2ccnc(N)n2)s1 | 109 |
| CC[C@H]1OC(=O)[C@H](C)[C@@H](O[C@H]2C[C@@](C)(OC)[C@@H](O)[C@H](C)O2)[C@H](C)[C@@H](O[C@@H]2O[C@H](C)C[C@H](N(C)C)[C@H]2O)[C@](C)(OC)C[C@@H](C)C(=O)[C@H](C)[C@@H](O)[C@]1(C)O | 112 |
| OC[C@H]1O[C@H](C[C@@H]1O)N2\C=C(\I)C(=O)NC2=O | 127 |
| Nc1ccc([S+](=O)([O-])Nc2ncccn2)cc1 | 131 |
| FC(F)(F)C1=CC=C2C(SCCCCCO\C3=C\O\C(CN4CCOCC4)=C/C3=O)=CC=NC2=C1 | 110 |
| Fc1ccc(C(c2ccc(F)cc2)N2CCN(C/C=C/c3ccccc3)CC2)cc1 | 109 |
| CCCN[C@H]1CCc2nc(N)sc2C1 | 142 |
| N#C/C(=C(/N)Sc1ccc(N)cc1)c1ccccc1C(F)(F)F | 87.9 |
| OC[C@H]1OCC(O1)[N@@]2C=CC(N)=NC2=O (some centres undefined) | 114 |
| O=C(O)COCCN1CCN(C(c2ccccc2)c2ccc(Cl)cc2)CC1 (centres undefined) | 117 |
| Cc1cc(SCc2sc(-c3ccc(C(F)(F)F)c(F)c3)nc2C)ccc1OCC(=O)O | 127 |
| ClC1=CC=C(CCCOC/2=N/NC(=O)C(=C2NCC3=CN=CC=C3)/Br)C=C1 | 83.2 |
| CCCC1=N[N](C)C2=C1\N=C(/NC2=O)C3=CC(=CC=C3OCC)[S+]([O-])(=O)N4CCN(C)CC4 | 74.6 |
| CC1(C)CCC(C)(C)c2cc(NC(=O)c3ccc(C(=O)O)cc3)ccc21 | 54.2 |

same assay, conditions: library / dose series: MIPE library, 11-point 1:3 dilution; top concentration 92.2 µM; 48 h

| Structure (SMILES) | viability |
| --- | --- |
| COC1=CC=CC=C1C2=CC=CC(=C2)C/3=C(O)/C4=CC(=C(Cl)C=C4NC3=O)C#N | 142 |
| C=C1CCC2[C@](C)(CO)C(O)CC[C@]2(C)C1C/C=C1/C(=O)OCC1O (some centres undefined) | 106 |

Reference: the supplement of paper PMC6723410
